Results on 22 compounds are retold here after PubChem BioAssay (NCI).

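All cell lines were grown in 96-well plates and treated with compound for 48 hours. Here, GI50 denotes the concentration required for 50% inhibition of growth. Definition used: TGI = concentration required for complete inhibition of growth.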 Some results are limits rather than exact numbers.

One test has as its system OVCAR-5 ovarian. Briefly: inhibition of tumour cell growth, NCI panel, 48 h.
Compound `O=C(O)CSc1n[nH]c(-c2ccccc2)n1` returned a TGI greater than 100 µM.

Turning to `O=c1cc2oc3cc(O)c(O)cc3c(-c3ccccc3O)c-2cc1O`, the GI50 is 44.6 µM and the TGI was greater than 100 µM.

Turning to `CCCCCCC[CH2][Sn]1([CH2]CCCCCCC)[O]C(=O)c2cccnc2[S]1`, the GI50 is greater than 100 µM and the TGI was greater than 100 µM.

Regarding `COc1ccc(/C(=N\NC(=O)C(N)=O)C(c2ccc(OC)cc2)C2(O)C(=O)Nc3c(Cl)cccc32)cc1` (configuration not stated), the TGI was greater than 100 µM.

For `Cc1ccc(S(=O)(=O)N/N=C/c2oc(-c3ccncc3)c(-c3ccncc3)c2[N+](=O)[O-])cc1`, the TGI was greater than 100 µM.

On to `CCc1cccc(C)c1NC(=O)C(=O)Cc1nc2ccccc2o1`, for which the TGI was greater than 100 µM.

In the case of `O=C1c2ccccc2C2(O)c3cc4ccccc4cc3OC12O` (configuration not stated), the TGI was greater than 100 µM.

With `CN(C)c1c([O-])c(=[N+](C)C)c1=O`, the TGI was greater than 100 µM.

Another test concerns EKVX NSCLC. Briefly: inhibition of tumour cell growth, NCI panel, 48 h.
With `O=c1n(-c2ccccc2)c(=O)n2n1C1C=CC2C2C(C1)C2(Cl)Cl` (configuration not stated), the TGI was greater than 100 µM.

`Cc1c(Cl)cccc1N1C(=O)C(Cl)=C(Cl)C1=O`: the TGI was greater than 100 µM.

Turning to `COc1cccc(/C=N/[N-]C(=O)c2ccncc2)c1[O-].[Cu+2].[OH3+]`, the GI50 was 58 µM and the TGI was greater than 100 µM.

`COc1ccc(C(O)c2nccn2C)c(OC)c1` (configuration not stated): the TGI is greater than 100 µM.

The compound `CCc1c(OC(C)=O)c2c(NC3OC(COC(C)=O)C(OC(C)=O)C(OC(C)=O)C3OC(C)=O)nc(OC)nc2oc1=O` (configuration not stated) had a TGI greater than 100 µM.

Regarding `Cc1cn2c(/C=C3\C(=O)Nc4ccc(O)cc43)c(-c3ccc(Cl)cc3)nc2s1`, the GI50 was 14.9 µM and the TGI was determined as 60.6 µM.

For the compound `O=[N+]([O-])c1ccc(-n2nnc(C3=NCCN3)c2-c2ccc(Cl)cc2)cc1`, the TGI is greater than 100 µM.

In the case of `CCOc1ccc(N2C(=O)/C(=C/c3ccc(N(CCC#N)CCC#N)cc3)N=C2c2cc([N+](=O)[O-])ccc2Cl)cc1`, the TGI was greater than 100 µM.

On to `COc1ccc(-c2cc(-c3ccccc3)c(C#N)c(=O)n2C2OC(CO)C(O)C(O)C2O)cc1` (configuration not stated), for which the TGI was greater than 100 µM.

Take `CCOC(=O)C1(c2ccccc2)CCC(=O)CC1`: the TGI is greater than 100 µM.

Turning to `CCCn1c(N)c(C(=O)N/N=C(/C)c2cc3cccc(OC)c3o2)sc1=S`, the GI50 was 32.6 µM and the TGI was greater than 100 µM.

Compound `O=C(O)CSc1n[nH]c(-c2ccccc2)n1` gave a TGI greater than 100 µM.

As to `O=c1cc2oc3cc(O)c(O)cc3c(-c3ccccc3O)c-2cc1O`, the GI50 was 29.2 µM and the TGI was greater than 100 µM.

Take `CCCCCCC[CH2][Sn]1([CH2]CCCCCCC)[O]C(=O)c2cccnc2[S]1`: the GI50 was greater than 100 µM and the TGI is greater than 100 µM.

Compound `COc1ccc(/C(=N\NC(=O)C(N)=O)C(c2ccc(OC)cc2)C2(O)C(=O)Nc3c(Cl)cccc32)cc1` (configuration not stated) had a TGI greater than 100 µM.

As for `Cc1ccc(S(=O)(=O)N/N=C/c2oc(-c3ccncc3)c(-c3ccncc3)c2[N+](=O)[O-])cc1`, the TGI is greater than 100 µM.

Consider `CCc1cccc(C)c1NC(=O)C(=O)Cc1nc2ccccc2o1`, for which the TGI is greater than 100 µM.

The compound `O=C1c2ccccc2C2(O)c3cc4ccccc4cc3OC12O` (configuration not stated) came in with a TGI greater than 100 µM.

`CN(C)c1c([O-])c(=[N+](C)C)c1=O` returned a TGI greater than 100 µM.

The test system of a further test is MDA-MB-435. Briefly: inhibition of tumour cell growth, NCI panel, 48 h.
Regarding `O=c1[nH]c(=O)n(C2CC(O)C(CO)O2)cc1CO` (configuration not stated), the GI50 is greater than 100 µM and the TGI is greater than 100 µM.

In the case of `CS(=O)(=O)CCCn1c(=O)c(Oc2ccc(F)cc2F)cc2cnc(NC3CCOCC3)nc21`, the GI50 is greater than 25 µM and the TGI was greater than 25 µM.

On to `Cc1cn2c(/C=C3\C(=O)Nc4ccc(O)cc43)c(-c3ccc(Cl)cc3)nc2s1`, for which the GI50 is 17.6 µM and the TGI was 88.8 µM.

Take `CCCCCCNC(=O)c1nc(-c2ccccc2)oc1Cc1ccc(OP(=O)(O)O)cc1`: the GI50 was 16.4 µM and the TGI amounted to 30.5 µM.

Take `CCCn1c(N)c(C(=O)N/N=C(/C)c2cc3cccc(OC)c3o2)sc1=S`: the GI50 was 56.6 µM and the TGI is greater than 100 µM.

With `O=c1cc2oc3cc(O)c(O)cc3c(-c3ccccc3O)c-2cc1O`, the GI50 is 4.57 µM and the TGI was greater than 100 µM.

A further test relates to OVCAR-3 ovarian. Nature of the test: inhibition of tumour cell growth, NCI panel, 48 h.
Compound `O=c1n(-c2ccccc2)c(=O)n2n1C1C=CC2C2C(C1)C2(Cl)Cl` (configuration not stated) had a TGI greater than 100 µM.

On to `O=c1[nH]c(=O)n(C2CC(O)C(CO)O2)cc1CO` (configuration not stated), for which the GI50 is greater than 100 µM and the TGI was greater than 100 µM.

As for `Cc1c(Cl)cccc1N1C(=O)C(Cl)=C(Cl)C1=O`, the TGI was greater than 100 µM.

Turning to `COc1cccc(/C=N/[N-]C(=O)c2ccncc2)c1[O-].[Cu+2].[OH3+]`, the GI50 is 33.7 µM and the TGI is greater than 100 µM.

For the compound `COc1ccc(C(O)c2nccn2C)c(OC)c1` (configuration not stated), the TGI was greater than 100 µM.

As for `CS(=O)(=O)CCCn1c(=O)c(Oc2ccc(F)cc2F)cc2cnc(NC3CCOCC3)nc21`, the GI50 is greater than 25 µM and the TGI is greater than 25 µM.

Regarding `CCc1c(OC(C)=O)c2c(NC3OC(COC(C)=O)C(OC(C)=O)C(OC(C)=O)C3OC(C)=O)nc(OC)nc2oc1=O` (configuration not stated), the TGI was greater than 100 µM.

As for `Cc1cn2c(/C=C3\C(=O)Nc4ccc(O)cc43)c(-c3ccc(Cl)cc3)nc2s1`, the GI50 is 16.9 µM and the TGI came out at 38.3 µM.

As to `O=[N+]([O-])c1ccc(-n2nnc(C3=NCCN3)c2-c2ccc(Cl)cc2)cc1`, the TGI was greater than 100 µM.

Turning to `CCOc1ccc(N2C(=O)/C(=C/c3ccc(N(CCC#N)CCC#N)cc3)N=C2c2cc([N+](=O)[O-])ccc2Cl)cc1`, the TGI turned out to be 56.5 µM.

In turn, `COc1ccc(-c2cc(-c3ccccc3)c(C#N)c(=O)n2C2OC(CO)C(O)C(O)C2O)cc1` (configuration not stated) registered a TGI greater than 100 µM.

As to `CCOC(=O)C1(c2ccccc2)CCC(=O)CC1`, the TGI is greater than 100 µM.

Regarding `CCCCCCNC(=O)c1nc(-c2ccccc2)oc1Cc1ccc(OP(=O)(O)O)cc1`, the GI50 is 17.1 µM and the TGI was determined as 31.4 µM.

With `CCCn1c(N)c(C(=O)N/N=C(/C)c2cc3cccc(OC)c3o2)sc1=S`, the GI50 was 30.1 µM and the TGI was greater than 100 µM.

In the case of `O=C(O)CSc1n[nH]c(-c2ccccc2)n1`, the TGI was greater than 100 µM.
